Source: ChEMBL document CHEMBL2429785, “Substituted Benzylspiroindolin-2-one Analogues as Positive Allosteric Modulators of the Muscarinic Acetylcholine Receptor M1” (ACS Med Chem Lett, 2013)

Assays:
[1] = target: T1, Muscarinic acetylcholine receptor M1 (Homo sapiens) (UniProt P11229); experiment: Positive allosteric modulation at muscarinic acetylcholine receptor M1(unknown origin) relative to control
T1 sequence (whole entry): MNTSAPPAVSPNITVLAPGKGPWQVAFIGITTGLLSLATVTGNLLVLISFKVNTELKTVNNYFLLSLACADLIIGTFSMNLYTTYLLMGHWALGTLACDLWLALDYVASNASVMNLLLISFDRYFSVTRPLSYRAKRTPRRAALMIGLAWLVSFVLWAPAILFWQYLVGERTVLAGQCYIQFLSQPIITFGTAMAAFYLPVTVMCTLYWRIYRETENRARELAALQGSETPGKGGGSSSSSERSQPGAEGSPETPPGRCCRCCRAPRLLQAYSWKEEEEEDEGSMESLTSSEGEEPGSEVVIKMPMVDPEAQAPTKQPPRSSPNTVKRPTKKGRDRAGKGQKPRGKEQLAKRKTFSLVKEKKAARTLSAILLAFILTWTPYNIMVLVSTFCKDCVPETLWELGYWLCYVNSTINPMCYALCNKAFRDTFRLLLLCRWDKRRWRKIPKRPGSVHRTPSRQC

[2] = target: T2, Muscarinic acetylcholine receptor M1 (Homo sapiens, UniProt P11229); experiment: Positive allosteric modulation at muscarinic acetylcholine receptor M1(unknown origin)
T2 sequence (P11229 whole entry): T1 sequence (whole entry)

Emax [1] [%]	EC50 [2] [µM]	Compound
76	3.8	CN1CCC2(C1)C(=O)N(Cc1ccc(-c3cnn(C)c3)cc1F)c1ccccc12 (centres undefined)
86	3.2	Cn1cc(-c2ccc(CN3C(=O)C4(OCCO4)c4ccccc43)c(F)c2)cn1
